According to patent US11427549B2, “Pyrimidinyloxy benzo-fused compounds as herbicides” (FMC Corporation, priority 2017, dated 2022):

Columns and labels:
[1] = tested on: galium (catchweed bedstraw, Galium aparine); test: Test A postemergence, galium; type: in vivo; conditions: Galium, post-emergence, 240 h, 0 to 100 scale (0 no effect, 100 complete control), read-out: Plant response rating, Galium; for pest or weed control at 31 g/ha: 31 g ai/ha; for pest or weed control at 125 g/ha: 125 g ai/ha
[2] = tested on: wheat (Triticum aestivum); test: Test A postemergence, wheat; type: in vivo; conditions: Triticum aestivum, post-emergence, 240 h, 0 to 100 scale (0 no effect, 100 complete control), read-out: Plant response rating, Wheat; for plant injury at 31 g/ha: 31 g ai/ha; for plant injury at 125 g/ha: 125 g ai/ha
[3] = tested on: ryegrass, Italian (Italian ryegrass, Lolium multiflorum); test: Test A postemergence, ryegrass, Italian; type: in vivo; conditions: Lolium multiflorum, post-emergence, 240 h, 0 to 100 scale (0 no effect, 100 complete control), read-out: Plant response rating, Ryegrass, Italian; for pest or weed control at 31 g/ha: 31 g ai/ha; for pest or weed control at 125 g/ha: 125 g ai/ha
rice (Oryza sativa) = test: Test B flooded paddy test, rice; conditions: Oryza sativa, read-out: Plant response rating, Rice (0 to 100 scale, 0 is no effect, 100 is complete control)
[4] = tested on: foxtail, giant (giant foxtail, Setaria faberii); test: Test A preemergence, foxtail, giant; type: in vivo; conditions: Setaria faberi, pre-emergence, 240 h, 0 to 100 scale (0 no effect, 100 complete control), read-out: Plant response rating, Foxtail, Giant; for pest or weed control at 31 g/ha: 31 g ai/ha; for pest or weed control at 125 g/ha: 125 g ai/ha
[5] = tested on: pigweed (Amaranthus retroflexus); test: Test A preemergence, pigweed; type: in vivo; conditions: Amaranthus retroflexus, pre-emergence, 240 h, 0 to 100 scale (0 no effect, 100 complete control), read-out: Plant response rating, Pigweed; for pest or weed control at 31 g/ha: 31 g ai/ha; for pest or weed control at 125 g/ha: 125 g ai/ha
[6] = tested on: ragweed (common ragweed, Ambrosia elatior); test: Test A postemergence, ragweed; type: in vivo; conditions: Ambrosia artemisiifolia, post-emergence, 240 h, 0 to 100 scale (0 no effect, 100 complete control), read-out: Plant response rating, Ragweed; for pest or weed control at 31 g/ha: 31 g ai/ha; for pest or weed control at 125 g/ha: 125 g ai/ha
[7] = tested on: barnyardgrass (Echinochloa crus-galli); test: Test A preemergence, barnyardgrass; type: in vivo; conditions: Echinochloa crus-galli, pre-emergence, 240 h, 0 to 100 scale (0 no effect, 100 complete control), read-out: Plant response rating, Barnyardgrass; for pest or weed control at 31 g/ha: 31 g ai/ha; for pest or weed control at 125 g/ha: 125 g ai/ha
[8] = tested on: ryegrass, Italian (Italian ryegrass, Lolium multiflorum); test: Test A preemergence, ryegrass, Italian; type: in vivo; conditions: Lolium multiflorum, pre-emergence, 240 h, 0 to 100 scale (0 no effect, 100 complete control), read-out: Plant response rating, Ryegrass, Italian; for pest or weed control at 31 g/ha: 31 g ai/ha; for pest or weed control at 125 g/ha: 125 g ai/ha
[9] = tested on: pigweed (Amaranthus retroflexus); test: Test A postemergence, pigweed; type: in vivo; conditions: Amaranthus retroflexus, post-emergence, 240 h, 0 to 100 scale (0 no effect, 100 complete control), read-out: Plant response rating, Pigweed; for pest or weed control at 31 g/ha: 31 g ai/ha; for pest or weed control at 125 g/ha: 125 g ai/ha
[10] = tested on: barnyardgrass (Echinochloa crus-galli); test: Test A postemergence, barnyardgrass; type: in vivo; conditions: Echinochloa crus-galli, post-emergence, 240 h, 0 to 100 scale (0 no effect, 100 complete control), read-out: Plant response rating, Barnyardgrass; for pest or weed control at 31 g/ha: 31 g ai/ha; for pest or weed control at 125 g/ha: 125 g ai/ha
[11] = tested on: ragweed (common ragweed, Ambrosia elatior); test: Test A preemergence, ragweed; type: in vivo; conditions: Ambrosia artemisiifolia, pre-emergence, 240 h, 0 to 100 scale (0 no effect, 100 complete control), read-out: Plant response rating, Ragweed; for pest or weed control at 31 g/ha: 31 g ai/ha; for pest or weed control at 125 g/ha: 125 g ai/ha
kochia (Kochia scoparia) [12] = test: Test A preemergence, kochia; type: in vivo; conditions: Bassia scoparia, pre-emergence, 240 h, 0 to 100 scale (0 no effect, 100 complete control), read-out: Plant response rating, Kochia; for pest or weed control at 31 g/ha: 31 g ai/ha; for pest or weed control at 125 g/ha: 125 g ai/ha
[13] = tested on: blackgrass (Alopecurus myosuroides); test: Test A postemergence, blackgrass; type: in vivo; conditions: Alopecurus myosuroides, post-emergence, 240 h, 0 to 100 scale (0 no effect, 100 complete control), read-out: Plant response rating, Blackgrass; for pest or weed control at 31 g/ha: 31 g ai/ha; for pest or weed control at 125 g/ha: 125 g ai/ha
[14] = tested on: ducksalad (Heteranthera limosa); test: Test B flooded paddy test, ducksalad; conditions: Heteranthera limosa, read-out: Plant response rating, Ducksalad (0 to 100 scale, 0 is no effect, 100 is complete control)
kochia (Kochia scoparia) [15] = test: Test A postemergence, kochia; type: in vivo; conditions: Bassia scoparia, post-emergence, 240 h, 0 to 100 scale (0 no effect, 100 complete control), read-out: Plant response rating, Kochia; for pest or weed control at 31 g/ha: 31 g ai/ha; for pest or weed control at 125 g/ha: 125 g ai/ha
[16] = tested on: barnyardgrass (Echinochloa crus-galli); test: Test B flooded paddy test, barnyardgrass; conditions: Echinochloa crus-galli, read-out: Plant response rating, Barnyardgrass (0 to 100 scale, 0 is no effect, 100 is complete control)
corn (Zea mays) = test: Test A postemergence, corn; type: in vivo; conditions: Zea mays, post-emergence, 240 h, 0 to 100 scale (0 no effect, 100 complete control); for Corn plant response rating (crop injury, 0 = no effect, 100 = complete kill) at 31 g/ha: 31 g ai/ha; for Corn plant response rating (crop injury, 0 = no effect, 100 = complete kill) at 125 g/ha: 125 g ai/ha

SMILES	pest or weed control at 31 g/ha [1] [%]	pest or weed control at 125 g/ha [1] [%]	plant injury at 31 g/ha [2] [%]	plant injury at 125 g/ha [2] [%]	pest or weed control at 31 g/ha [3] [%]	pest or weed control at 125 g/ha [3] [%]	plant injury at 250 g/ha (rice (Oryza sativa)) [%]	pest or weed control at 31 g/ha [4] [%]	pest or weed control at 125 g/ha [4] [%]	pest or weed control at 31 g/ha [5] [%]	pest or weed control at 125 g/ha [5] [%]	pest or weed control at 31 g/ha [6] [%]	pest or weed control at 125 g/ha [6] [%]	pest or weed control at 31 g/ha [7] [%]	pest or weed control at 125 g/ha [7] [%]	pest or weed control at 31 g/ha [8] [%]	pest or weed control at 125 g/ha [8] [%]	pest or weed control at 31 g/ha [9] [%]	pest or weed control at 125 g/ha [9] [%]	pest or weed control at 31 g/ha [10] [%]	further results
O=C1OC(CCC(F)(F)F)Cc2c(Oc3ncc(Cl)cn3)cccc21 (centres unmarked) [Compound 23, 5-[(5-Chloro-2-pyrimidinyl)oxy]-3,4-dihydro-3-(3,3,3-trifluoropropyl)-1H-2-benzopyran-1-one]	40	70	20	30	0	0	0	0	40	20	100	0	10	0	30	0	0	60	70	20	pest or weed control at 125 g/ha [10]: 20%; pest or weed control at 31 g/ha [11]: 0%; pest or weed control at 125 g/ha [11]: 0%; pest or weed control at 31 g/ha (kochia (Kochia scoparia) [12]): 0%; pest or weed control at 125 g/ha (kochia (Kochia scoparia) [12]): 60%; pest or weed control at 31 g/ha [13]: 20%; pest or weed control at 125 g/ha [13]: 30%; pest or weed control at 250 g/ha [14]: 0%; pest or weed control at 31 g/ha (kochia (Kochia scoparia) [15]): 20%; pest or weed control at 125 g/ha (kochia (Kochia scoparia) [15]): 70%; pest or weed control at 250 g/ha [16]: 0%; Corn plant response rating (crop injury, 0 = no effect, 100 = complete kill) at 31 g/ha (corn (Zea mays)): 10%; Corn plant response rating (crop injury, 0 = no effect, 100 = complete kill) at 125 g/ha (corn (Zea mays)): 20%
O=C1c2cccc(Oc3ncc(Cl)cn3)c2C1CCC(F)(F)F (centres unmarked) [Compound 24, 2-[(5-Chloro-2-pyrimidinyl)oxy]-8-(3,3,3-trifluoropropyl)bicyclo[4.2.0]octa-1,3,5-trien-7-one]	20	80	0	0	0	20	0	0	20	0	30	0	20	0	50	0	10	20	70	20	pest or weed control at 125 g/ha [10]: 70%; pest or weed control at 125 g/ha [11]: 0%; pest or weed control at 31 g/ha (kochia (Kochia scoparia) [12]): 20%; pest or weed control at 125 g/ha (kochia (Kochia scoparia) [12]): 60%; pest or weed control at 31 g/ha [13]: 30%; pest or weed control at 125 g/ha [13]: 80%; pest or weed control at 250 g/ha [14]: 90%; pest or weed control at 31 g/ha (kochia (Kochia scoparia) [15]): 20%; pest or weed control at 125 g/ha (kochia (Kochia scoparia) [15]): 50%; pest or weed control at 250 g/ha [16]: 25%; Corn plant response rating (crop injury, 0 = no effect, 100 = complete kill) at 31 g/ha (corn (Zea mays)): 10%; Corn plant response rating (crop injury, 0 = no effect, 100 = complete kill) at 125 g/ha (corn (Zea mays)): 20%
O=C1OCC(CCC(F)(F)F)c2c(Oc3ncc(Cl)cn3)cccc21 (centres unmarked) [Compound 25, 5-[(5-Chloro-2-pyrimidinyl)oxy]-3,4-dihydro-4-(3,3,3-trifluoropropyl)-1H-2-benzopyran-1-one]	30	40	0	10	0	0	0	20	90	10	100	0	30	0	30	0	0	30	50	0	pest or weed control at 125 g/ha [10]: 10%; pest or weed control at 31 g/ha [11]: 0%; pest or weed control at 125 g/ha [11]: 0%; pest or weed control at 31 g/ha (kochia (Kochia scoparia) [12]): 0%; pest or weed control at 125 g/ha (kochia (Kochia scoparia) [12]): 70%; pest or weed control at 31 g/ha [13]: 20%; pest or weed control at 125 g/ha [13]: 60%; pest or weed control at 250 g/ha [14]: 0%; pest or weed control at 31 g/ha (kochia (Kochia scoparia) [15]): 30%; pest or weed control at 125 g/ha (kochia (Kochia scoparia) [15]): 60%; pest or weed control at 250 g/ha [16]: 0%; Corn plant response rating (crop injury, 0 = no effect, 100 = complete kill) at 31 g/ha (corn (Zea mays)): 20%; Corn plant response rating (crop injury, 0 = no effect, 100 = complete kill) at 125 g/ha (corn (Zea mays)): 20%
